Values quoted from earlier work, collected in patent EP1179349B1, “W/O emulsion adjuvant compositions for vaccines” (Lohmann Animal Health GmbH & Co. KG, priority 2000, dated 2002).

Conditions: manufacturer's data

Question: For CCCCCCCCCCCCCC(=O)OC(C)C [Isopropylmyristat], which Toxizität is on record?
Answer: Keine toxische Wirkung nachweisbar.
